Experimental findings from US11649238B2, “Substituted pyrazolo[1,5-a]pyrimidines as PI4K inhibitors” (GLAXOSMITHKLINE INTELLECTUAL PROPERTY DEVELOPMENT LIMITED, priority 2018, dated 2023) are described below.

Several values for one entry are separate records, joined by “and”; a condition that tells them apart may be missing. Equal entries are not always repeated.

A short description of series [1]: Human Microsomal Metabolic Stability Assay. Format: in vitro ADME. To be noted: 0.5 μM test compound, 0.5 mg/mL microsomal protein, 45 min. The protocol:
d) Human Microsomal Metabolic Stability Assay Protocol Summary Test compound (0.5 μM) was incubated with pooled liver microsomes. Test compound was incubated over the course of a 45 min experiment and the test compound was analysed by LC-MS/MS. Experimental Procedure Pooled human liver microsomes were purchased from a reputable commercial supplier, for example Corning Life Sciences. Microsomes (final protein concentration 0.5 mg/mL), 50 mM phosphate buffer pH7.4 and NADPH (final concentration=1 mM) were pre-incubated at 37° C. prior to the addition of test compound (final substrate concentration=0.5 μM; final DMSO concentration=0.25%) to initiate the reaction. The final incubation volume was 500 μL. A control incubation was included for each compound tested where 50 mM phosphate buffer pH7.4 was added instead of NADPH (minus NADPH). Two control compounds were included with each species. All incubations are performed singularly for each test compound. Each compound was incubated for 45 minutes and samples (50 μL) of incubate were taken at 0, 5, 15, 30 and 45 min. The control (minus NADPH) was sampled at 45 min only. The reactions were stopped by the addition of 100 μL acetonitrile containing internal standard to the sample. The terminated samples were centrifuged at 2,500 rpm for 20 min at 4° C. to precipitate the protein. Quantitative Analysis Following protein precipitation, the samples were analysed using generic LC-MS/MS conditions. Data Analysis From a plot of In peak area ratio (compound peak area/internal standard peak area) against time, the gradient of the line was determined. Subsequently, intrinsic clearance was calculated using the equations below, then converted to mL/min/g: Elimination rate constant (k)=(−gradient) Half life (t½) (min)=0.693+k Intrinsic Clearance (CLint) (μL/min/mg protein)=(V×0.693)+t1/2 where V=Incubation volume μL/mg microsomal protein.

Series [2] concerns the target T1, human PI4KIII-beta 13-828 (D316-330) (Homo sapiens, UniProt Q9UBF8).
T1 construct: human PI4KIII-beta 13-828 (D316-330)
Description: PI4 KB Activity Assay (ADP-GLO Kinase assay). The class given is biochemical. To be noted: 1 mM ATP, 60 μM phosphatidylinositol, 3 hours at room temperature; read-out: mean pIC50 (converted). The procedure, abridged:
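Human PI4KIII-beta 13-828 (Δ316-330), 1.5 nM, with 1 mM ATP and 60 μM phosphatidylinositol in Hepes pH 7.5/MgCl2 buffer, 11-point titration (top 10 μM, 1% DMSO), 3 h at room temperature. ADP measured by ADP-Glo luminescence; IC50 by four-parameter fit against no-compound and no-enzyme controls.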
(ADP-Glo first removes unused ATP, then detects ADP through luciferase.)

Series [3] can be described thus: Spleen Concentration Assay. The class given is in vivo. To be noted: male, Wistar Han, rat, intravenous, 1 mg/kg, intravenous infusion 1 mg/kg over 1 h, single male Wistar Han rat, 12 hours after the start of dosing. The procedure:
e) Spleen Concentration Assay Compounds 17, 18, 19, 22 and 23 were tested in this spleen accumulation assay. Compounds were administered intravenously to rats to determine what the level of the compound in the spleen would be if all of the inhaled dose was absorbed (either orally or through the lungs) and systemic circulation was exposed to the full dose. Compounds 17, 19, 22 and 23 were formulated in 2% DMSO in Kleptose (aq, 10% w/v). Compound 18 was formulated in a 5:45:50 ratio of DMSO:PEG200:water. Formulations were administered as intravenous infusions (1 mg/kg over 1 h) to a single male, Wistar Han rat. 12 hours after the start of dosing, rats were euthanised and spleens were collected. Approximately 0.5 g samples of spleen were taken and homogenised in 4 mL water. 100 μL of the resulting homogenates were prepared by protein precipitation with 300 μL of acetonitrile containing an internal standard and assayed (along with calibration standards prepared in the same manner) by reversed-phase liquid chromatography-mass spectrometry, using a heated electrospray source and operated in the positive ion multiple reaction monitoring mode. The liquid chromatography column used was a Waters Cortecs C18 2.7 μm particle size, 50×2.1 mm column at 60° C., and the mobile phase, operated as a gradient, utilised (A) 0.1% formic acid (aq) and (B) 0.1% formic acid in acetonitrile, operated at a flow rate of 1 mL/min.

T1 sequence (Q9UBF8 1-801 isoform Q9UBF8-2): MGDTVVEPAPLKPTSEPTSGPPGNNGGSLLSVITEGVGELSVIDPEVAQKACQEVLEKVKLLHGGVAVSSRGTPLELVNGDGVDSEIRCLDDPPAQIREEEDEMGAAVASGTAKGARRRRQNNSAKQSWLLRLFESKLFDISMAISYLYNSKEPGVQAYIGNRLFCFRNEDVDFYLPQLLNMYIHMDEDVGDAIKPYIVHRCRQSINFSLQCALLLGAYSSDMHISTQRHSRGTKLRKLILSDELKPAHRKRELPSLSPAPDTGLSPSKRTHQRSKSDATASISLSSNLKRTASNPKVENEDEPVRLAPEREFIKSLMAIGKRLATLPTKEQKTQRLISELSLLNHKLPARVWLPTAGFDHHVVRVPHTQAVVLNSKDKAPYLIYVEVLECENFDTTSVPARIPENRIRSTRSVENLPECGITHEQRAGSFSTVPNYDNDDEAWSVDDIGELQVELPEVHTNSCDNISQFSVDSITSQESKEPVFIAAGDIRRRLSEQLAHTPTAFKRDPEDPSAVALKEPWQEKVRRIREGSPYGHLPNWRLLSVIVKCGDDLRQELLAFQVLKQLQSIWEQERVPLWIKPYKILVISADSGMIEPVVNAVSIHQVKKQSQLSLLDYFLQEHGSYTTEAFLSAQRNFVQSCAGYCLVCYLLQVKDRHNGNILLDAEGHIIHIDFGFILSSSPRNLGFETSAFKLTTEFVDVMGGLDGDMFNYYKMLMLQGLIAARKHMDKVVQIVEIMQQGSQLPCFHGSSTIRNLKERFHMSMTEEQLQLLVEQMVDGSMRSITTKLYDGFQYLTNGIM

Consider `Cc1ccc(-c2c(C)nn3c(NCc4cccc(-c5nccn5C)c4)cc(C(C)(C)O)nc23)cc1C(=O)N(C)CCCO` [Compound 17, 5-(5-(2-Hydroxypropan-2-yl)-2-methyl-7-((3-(1-methyl-1H-imidazol-2-yl)benzyl)amino)pyrazolo[1,5-a]pyrimidin-3-yl)-N-(3-hydroxypropyl)-N,2-dimethylbenzamide], for which the intrinsic clearance in series [1] was 28.9 mL/min/g. In series [2], the IC50 is 2.51 nM and ≤ 3.98 nM.
`CCN(CCO)C(=O)c1cc(-c2c(C)nn3c(NCc4cccc(-c5nccn5C)c4)cc(C(C)(C)O)nc23)ccc1OC` [Compound 19, N-ethyl-N-(2-hydroxyethyl)-5-(5-(2-hydroxypropan-2-yl)-2-methyl-7-((3-(1-methyl-1H-imidazol-2-yl)benzyl)amino)pyrazolo[1,5-a]pyrimidin-3-yl)-2-methoxybenzamide] registered an intrinsic clearance in series [1] of 11.6 mL/min/g. In series [3], the concentration at 12 h was below 7 ng/g. In series [2], the IC50 is 2.51 nM and ≤ 3.98 nM.
In series [1], `COc1ccc(-c2c(C)nn3c(NCc4cccc(-c5nccn5C)c4)cc(C(C)(C)O)nc23)cc1C(=O)N(C)C1CCOCC1` [Compound 21, 5-(5-(2-Hydroxypropan-2-yl)-2-methyl-7-((3-(1-methyl-1H-imidazol-2-yl)benzyl)amino)pyrazolo[1,5-a]pyrimidin-3-yl)-2-methoxy-N-methyl-N-(tetrahydro-2H-pyran-4-yl)benzamide] gave an intrinsic clearance of 34.0 mL/min/g. Further, in series [2], the IC50 was 6.31 nM.
The compound `Cc1ccc(-c2c(C)nn3c(NCc4cccc(-c5nccn5C)c4)cc(C(C)(C)O)nc23)cc1C(=O)N(C)[C@@H](C)CO` [Compound 22, (S)—N-(1-hydroxypropan-2-yl)-5-(5-(2-hydroxypropan-2-yl)-2-methyl-7-((3-(1-methyl-1H-imidazol-2-yl)benzyl)amino)pyrazolo[1,5-a]pyrimidin-3-yl)-N,2-dimethylbenzamide] registered an intrinsic clearance in series [1] of 33.7 mL/min/g. Besides, the concentration at 12 h in series [3] was below 7 ng/g. Besides, the IC50 in series [2] was 3.16 nM and ≤ 3.98 nM.
